According to US20090169635A1, “PHARMACEUTICAL COMPOSITIONS AND USE THEREOF” (priority 2007, published 2009):
Counter-ions that a name gives are not always drawn.

Key:
[1] = system: Mycobacterium tuberculosis strain H37RV (ATCC 27294); test: Tuberculosis model: mice inoculated intravenously with M. tuberculosis, treated intraperitoneally for 4 weeks, observed to D56; type: in vivo, BALB/C female mice; settings: for Numbers of deaths: 4 weeks
[2] = system: Mycobacter avium complex (MAC); settings: 100 mg/kg IM five days a week for four weeks; cited from earlier work
[3] = system: Staphylococcus pneumoniae (ATCC 6301); test: Bacterial pneumonia model: mice inoculated intratracheally, single intravenous treatment 20 hours later, mortality recorded for 10 days; type: in vivo, Male CD-1 mice; settings: Vancomycin dose 1 mg/kg i.v.
Protocol: An investigation of the antibacterial efficacy of nanoparticulate forms of parenterally administered Vancomycin was carried out in comparison with conventional parenteral Vancomycin […] for injection,
Bacteria: […] (ATCC #6301), Gram-positive serotype
Animals: Male CD-1 (Charles River Laboratory) mice weighing 24±2 g provided are used. Space allocation for animals is 45×23×21 cm for 10 mice. The animals are housed in animal cages and are maintained in a hygienic environment under controlled temperature (22°-23° C.) and humidity (50% -60%) with 12 hours light/dark cycles for at least one week in the laboratory prior to initiation of the study. Free access to standard lab food and water supply is allowed.
Pneumonia model: Mice were inoculated intratracheally (IT) with a LD90-100 of […] pneumoniae (ATCC 6301) (9.7×10^6 […]) in 40 μl PBS. In 16 hours, all mice developed pronounced pneumonia, confirmed by histological observation. Test formulations and vehicle were diluted with 5% sterile dextrose and administered intravenously to animals 20 hours after bacterial inoculation. Mortality was recorded once daily for 10 days.

[4] = cited from earlier work
[5] = 100 mg/kg i.p., 2 x week, cumulative 800 mg/kg
[6] = 200 mg/kg i.p., 5 x week, cumulative 4000 mg/kg
[7] = D56, 200 mg/kg i.p., 5 x week for 4 weeks

For `[H]/N=C(/N)N[C@H]1[C@H](O)[C@@H](O)[C@H](O[C@@H]2O[C@@H](C)[C@](O)(C=O)[C@H]2O[C@@H]2O[C@@H](CO)[C@H](O)[C@@H](O)[C@@H]2NC)[C@@H](N/C(N)=N\[H])[C@@H]1O` [Streptomycin USP, Streptomycin sulfate], the Numbers of deaths ([1]; 100 mg/kg i.p., 2 x week, cumulative 800 mg/kg SM base) was 5/12, the “Survival rate (%) 14 d” value [1, 5] was 83% and the “Survival rate (%) 28 d” value [1, 5] was 58%. For the same compound, the “Survival rate (%) 56 d” value [1, 5] was 58%, the Numbers of deaths ([1]; 200 mg/kg i.p., 5 x week, cumulative 4000 mg/kg SM base) was 1/12 and the “Survival rate (%) 14 d” value [1, 6] was 92%. The “Survival rate (%) 28 d” value [1, 6] was 92%, the “Survival rate (%) 56 d” value [1, 6] was 92% and the “Body weight” value ([1]; D14, 100 mg/kg i.p., 2 x week) was 14.90 ± 1.83 g. For the same compound, the “Log (CFU/Lung)” value ([1]; D14, 100 mg/kg i.p., 2 x week) was 8.16 ± 0.25 Log (CFU/Lung), the “Log (CFU/Spleen)” value ([1]; D14, 100 mg/kg i.p., 2 x week) was 7.55 ± 0.26 Log (CFU/Spleen) and the “Body weight” value ([1]; D14, 200 mg/kg i.p., 5 x week) was 16.22 ± 0.39 g. For the same compound, the “Log (CFU/Lung)” value ([1]; D14, 200 mg/kg i.p., 5 x week) was 7.85 ± 0.14 Log (CFU/Lung), the “Log (CFU/Spleen)” value ([1]; D14, 200 mg/kg i.p., 5 x week) was 6.90 ± 0.08 Log (CFU/Spleen) and the “Body weight” value ([1]; D28, 100 mg/kg i.p., 2 x week) was 16.73 ± 2.64 g. For the same compound, the “Log (CFU/Lung)” value ([1]; D28, 100 mg/kg i.p., 2 x week) was 8.37 ± 0.36 Log (CFU/Lung), the “Log (CFU/Spleen)” value ([1]; D28, 100 mg/kg i.p., 2 x week) was 7.48 ± 0.51 Log (CFU/Spleen) and the “Body weight” value ([1]; D28, 200 mg/kg i.p., 5 x week) was 19.62 ± 0.29 g. The “Log (CFU/Lung)” value ([1]; D28, 200 mg/kg i.p., 5 x week) was 7.57 ± 0.26 Log (CFU/Lung), the “Log (CFU/Spleen)” value ([1]; D28, 200 mg/kg i.p., 5 x week) was 6.66 ± 0.28 Log (CFU/Spleen) and the “Body weight” value [1, 7] was 17.85 ± 1.15 g. The “Log (CFU/Lung)” value [1, 7] was 8.86 ± 0.18 Log (CFU/Lung), the “Log (CFU/Spleen)” value [1, 7] was 7.21 ± 0.23 Log (CFU/Spleen) and the “bacterial count of MAC from spleen, lungs and liver” value [2] was “significant reduction in bacterial count”.
With “Vancomycin sulfate [Vancomycin injection (USP)]” the Mortality ([3]; 10 days) was 70%, the Survival ([3]; 10 days) was 30% and the “Day 1 (deaths recorded that day)” value ([3]; n=10, Day 1) was 0. The “Day 2 (deaths recorded that day)” value ([3]; n=10, Day 2) was 0, the “Day 3 (deaths recorded that day)” value ([3]; n=10, Day 3) was 0 and the “Day 4 (deaths recorded that day)” value ([3]; n=10, Day 4) was 1. For the same compound, the “Day 5 (deaths recorded that day)” value ([3]; n=10, Day 5) was 3, the “Day 6 (deaths recorded that day)” value ([3]; n=10, Day 6) was 2 and the “Day 7 (deaths recorded that day)” value ([3]; n=10, Day 7) was 0. The “Day 8 (deaths recorded that day)” value ([3]; n=10, Day 8) was 1, the “Day 9 (deaths recorded that day)” value ([3]; n=10, Day 9) was 0 and the “Day 10 (deaths recorded that day)” value ([3]; n=10, Day 10) was 0. The “concentration in epithelial lining fluid” value ([4]; patients, lung epithelial lining fluid versus plasma) was ≤ 20 % of plasma levels and the “patients with inadequate concentrations” value ([4]; standard dosage (1 g twice daily)) was “approximately 40 % of patients”.
